Data on one substance can be found in patent publication US8236761B2, “C-Met receptor regulation by angiotensin IV (AT4) receptor ligands” (Washington State University Research Foundation, priority 2006, dated 2012).

One experiment has as its system Erk1/2, Akt. Description: Erk1/2 and Akt phosphorylation in HGF-treated B16-F10 cells (scratch wound assay). It counts as cell-based, murine. On the procedure:
Immunoprecipitation and Western blotting. Cells were serum starved for two hours in DMEM before treatment. Cells were harvested using RIPA lysis buffer (Upstate Biotechnol. Inc., Lake Placid, N.Y.) with phosphatase inhibitor cocktails 1 and 2 (Sigma, St Louis, Mo., USA). Protein concentration was determined using the BCA assay (Pierce, Rockford, Ill., USA). Lysates were incubated with antibody overnight at 4° C. Immunoprecipitation controls received mouse non-specific Ig (Upstate). Proteins were captured with protein-A agarose (Upstate) and were washed with PBS. Proteins were resolved using SDS-PAGE electrophoresis (Criterion, BioRad, Hercules, Calif., USA), transferred to nitrocellulose, and incubated with appropriate antibodies. Proteins were visualized using the Supersignal West Pico Chemiluminescent Substrate system (Pierce). The film images were digitized and analyzed using TotalLab® software (AmershamPharmacia/GE HealthCare, Piscataway, N.J.).
In addition, molecules associated with proliferation and migration signal transduction in B16-F10 melanoma cells were investigated in the scratch wound assay. HGF alone promoted enhanced phosphorylation of the signal transduction molecules Erk1/2, an effect that was attenuated by the presence of Norleual (FIG. 11B).

The test system of experiment [1] is B16-F10 murine melanoma cells. In words: B16-F10 scratch wound closure assay. It counts as cell-based. Conditions: six hours after scratch. On the procedure: Scratch Assay. Confluent B16-F10 cells in 48 well plates were scratched with a 200 μl pipette tip. Wells were treated with vehicle, HGF, and/or Norleual. Photos were taken at various time points. Photos were graded by two investigators.
See Example 1 for Materials and Methods. Norleual was applied to HGF treated B16-F10 murine melanoma cells in a scratch wound assay. HGF accelerated the wound closure, however Norleual was able to attenuate HGF stimulated closure six hours after scratch (FIG. 11A).

The test system of the next experiment is MDCK cells. In words: HGF stimulated MDCK cell collagen I invasion (transwell chamber). It counts as cell-based, canine. Conditions: HGF 20 ng/ml, twelve hours. The procedure: FIG. 9A: Modulation of HGF stimulated MDCK cell collagen I invasion in the Costar transwell chamber invasion assay. 50 μl of collagen I was added to the top chamber of the transwell chamber (BD Biosciences) and gelled by adjusting it to a physiological pH with a 1:1:1 mixture of 10× Modified Eagle's Medium, 1 M sodium bicarbonate, and 0.1 M sodium hydroxide for 30 minutes at 37° C. 50,000 MDCK cells in 1% FBS DMEM were seeded into the inside of the top chamber over the gelled collagen I solution and allowed to attach for two hours at 37° C. After the cells had attached to the collagen 1, the indicated concentrations of Norleual were added to the top chamber. […] The cells that had invaded the collagen and migrated to the underside of the membrane were counted in five random fields at 40× on a light microscope. The effect of treatment was determined using the one-way ANOVA with tukey's post-hoc analysis (Prism statistical analysis software). * indicates p<0.01 vs. HGF alone treatment. […] The cells that had invaded the collagen and migrated to the underside of the membrane were counted in five random fields at 40× on a light microscope. The effect of treatment was determined using the one-way ANOVA with tukey's post-hoc analysis (Prism statistical analysis software). * indicates p<0.05 vs. HGF treatment. […]

The subject of another experiment is HUVECs. In words: Extracellular matrix related gene microarray in HUVECs. It counts as cell-based, human. Conditions: 8 days, 1 pM. On the procedure: Angiotensin-like factors as candidate c-Met receptor ligands were tested for the ability to modulate expression of extracellular matrix-related proteins in human umbilical vein endothelial cells (HUVECs) by gene microarray. Briefly, HUVECs were treated for 8 days in the presence or absence of test compounds at a concentration of 1 pM; Norleual (Compound 2, SEQ ID NO:43) was used as an exemplary angiotensin-like factor. RNA was harvested and transcriptional activities of 96 extracellular matrix related genes were assessed using gene microarrays.

Another experiment has as its system c-Met receptor. In words: Cross-linking of 125I-COMPOUND 2 or 125I-HGF to HEK293 cell membranes with unlabeled competitor. In kind it is binding, human. Conditions: 125I-HGF cross-linked to HEK293 cell membranes, FIG. 3B. On the procedure: FIG. 3C: ^125I-Norleual was bound to HEK membranes in the presence or absence of 1.5 nM HGF (n=8) or 1 μM Norleual (n=6). Total binding is reported as percent control (n=10), (*p<0.001). Error bars indicate±SD. […] Error bars indicate SD and data points were performed in duplicate.
Briefly, COMPOUND 2 was iodinated with […] and bound and cross-linked to HEK cell membranes with or without 1 nM COMPOUND 2 or 1 nM hepatocyte growth factor. Following solubilization and separation of free label by molecular sieving, total radioactive counts were determined. The ability of the ligand COMPOUND 2 to compete with hepatocyte growth factor binding to the c-Met receptor was also tested using mouse liver plasma membranes and intact HEK293 cells. Briefly, mouse liver was homogenized and incubated with ^125I-HGF with various concentrations of HGF or COMPOUND 2. Membranes were pelleted and unbound label was removed by washing, and total radioactive counts were determined. Next, HEK293 cell membranes were cross-linked with ^125I-HGF with unlabeled HGF or COMPOUND 2.

Non-standard residues stand in square brackets, D forms with d. No end group written: not given here. Nle = CCCC[C@H](N)C(=O)O

On to “Nle-Tyr-Leu-ψ-His-Pro-Phe ([Nle]YLHPF; also: reduced peptide bond psi(CH2NH2) between Leu and His) [Norleual]”, for which, in the experiment on Erk1/2, Akt, the “HGF-enhanced phosphorylation of Erk1/2” value is listed as “attenuated” and the “HGF-induced Akt phosphorylation” value is “did not affect”. The “HGF stimulated scratch wound closure” value in experiment [1] is recorded as “attenuate”. The “c-Met mediated collagen I invasion by MDCK cells” value in the experiment with MDCK cells is reported as “inhibition”. For the same substance, the “c-Met mediated collagen I invasion by MDCK cells” value in the experiment on MDCK cells (listed as Compound 2) is “inhibited”. Besides, the “Change in gene expression versus control: CD44, catenin, catenin β, catenin δ1, MMP-1, PAI-1, thrombospondin 1, integrin α-2” value in the experiment with HUVECs is given as “at least two fold”. Further, in the experiment with c-Met receptor, the “Mode of inhibition of HGF binding to the c-Met receptor” value was “competitive inhibitor of HGF binding to the c-Met receptor”.
